Like-named read-outs stand apart in the source and are kept apart here.
Assays:
JAK3 = JAK3 (Homo sapiens (Human), UniProt P52333); test: LanthaScreen JAK biochemical assay, JAK3; conditions: for Ki: read-out: JAK 3 (pKi) (converted)
Procedure: (§1) A panel of four LanthaScreen JAK biochemical assays (JAK1, 2, 3 and Tyk2) were carried in a common kinase reaction buffer (50 mM HEPES, pH 7.5, 0.01% Brij-35, 10 mM MgCl2, and 1 mM EGTA). Recombinant GST-tagged JAK enzymes and a GFP-tagged STAT1 peptide substrate were obtained from Life Technologies.

JAK1 = JAK1 (Homo sapiens (Human), UniProt P23458); test: LanthaScreen JAK biochemical assay, JAK1
Procedure: as §1

[1] = test system: IL-13 induced STAT6 phosphorylation in HT-29 human colorectal adenocarcinoma cells; test: Cellular JAK potency assay: inhibition of IL-13 induced STAT6 phosphorylation; format: cell-based; conditions: IL-13 induced STAT6 phosphorylation, HT-29 cells; for IC50: Homo sapiens, read-out: HT-29 (pIC50) (converted)
Procedure: The potency of test compounds for inhibition of the JAK-dependent cytokine interleuken-13 (IL-13) was assessed by measuring IL-13 (IL-13, R&D Systems) induced STAT6 phosphorylation in HT-29 human colorectal adenocarcinoma cells (ATCC).
The anti-STAT6 antibody (Cell Signaling Technologies) was conjugated to AlphaScreen acceptor beads (Perkin Elmer), while the anti-pSTAT6 (pTyr641) antibody (Cell Signaling Technologies) was biotinylated using EZ-Link Sulfo-NHS-Biotin (Thermo Scientific).
HT-29 cells were grown at 37° C. in a 5% CO2 humidified incubator in McCoy's 5a Modified medium (ATCC) supplemented with 10% FBS (Hyclone), 100 U/mL penicillin, 100 μg/mL streptomycin (Life Technologies), and 2 mM GlutaMAX (Life Technologies). On day 1 of the assay, cells were seeded at a 7,500 cells/well density in white poly-D-lysine-coated 384-well plates (Corning) with 25 μL medium, and were allowed to adhere overnight in the incubator. On day 2 of the assay, the medium was removed and replaced with 12 μL of assay buffer (Hank's Balanced Salt Solution/HBSS, 25 mM HEPES, and 1 mg/ml bovine serum albumin/BSA) containing dose-responses of test compounds. Compounds were serially diluted in DMSO and then diluted another 1000-fold in media to bring the final DMSO concentration to 0.1%. Cells were incubated with test compounds at 37° C. for 1 h, and followed by the addition of 12 μL of pre-warmed IL-13 (12 ng/ml in assay buffer) for stimulation. After incubating at 37° C. for 30 min, the assay buffer (containing compound and IL-13) was removed, and 10 μL of cell lysis buffer (25 mM HEPES, 0.1% SDS, 1% NP-40, 5 mM MgCl2, 1.3 mM EDTA, 1 mM EGTA, and supplement with Complete Ultra mini protease inhibitors and PhosSTOP from Roche Diagnostics). The plates were shaken at ambient temperature for 30 min before the addition of detection reagents. A mixture of biotin-anti-pSTAT6 and anti-STAT6 conjugated acceptor beads was added first and incubated at ambient temperature for 2 h, followed by the addition of streptavidin conjugated donor beads (Perkin Elmer). After a minimum of 2 h incubation, the assay plates were read on the EnVision plate reader.
Results were expressed as the negative logarithm of the IC50 value, pIC50.

JAK2 = JAK2 (Homo sapiens (Human), UniProt O60674); test: LanthaScreen JAK biochemical assay, JAK2; conditions: for Ki: read-out: JAK 2 (pKi) (converted)
Procedure: as §1

Tyk2 = Tyk2 (Homo sapiens (Human), UniProt P29597); test: LanthaScreen JAK biochemical assay, Tyk2; conditions: for Ki: read-out: Tyk 2 (pKi) (converted)
Procedure: as §1

Sequence of Tyk2 (P29597 whole entry): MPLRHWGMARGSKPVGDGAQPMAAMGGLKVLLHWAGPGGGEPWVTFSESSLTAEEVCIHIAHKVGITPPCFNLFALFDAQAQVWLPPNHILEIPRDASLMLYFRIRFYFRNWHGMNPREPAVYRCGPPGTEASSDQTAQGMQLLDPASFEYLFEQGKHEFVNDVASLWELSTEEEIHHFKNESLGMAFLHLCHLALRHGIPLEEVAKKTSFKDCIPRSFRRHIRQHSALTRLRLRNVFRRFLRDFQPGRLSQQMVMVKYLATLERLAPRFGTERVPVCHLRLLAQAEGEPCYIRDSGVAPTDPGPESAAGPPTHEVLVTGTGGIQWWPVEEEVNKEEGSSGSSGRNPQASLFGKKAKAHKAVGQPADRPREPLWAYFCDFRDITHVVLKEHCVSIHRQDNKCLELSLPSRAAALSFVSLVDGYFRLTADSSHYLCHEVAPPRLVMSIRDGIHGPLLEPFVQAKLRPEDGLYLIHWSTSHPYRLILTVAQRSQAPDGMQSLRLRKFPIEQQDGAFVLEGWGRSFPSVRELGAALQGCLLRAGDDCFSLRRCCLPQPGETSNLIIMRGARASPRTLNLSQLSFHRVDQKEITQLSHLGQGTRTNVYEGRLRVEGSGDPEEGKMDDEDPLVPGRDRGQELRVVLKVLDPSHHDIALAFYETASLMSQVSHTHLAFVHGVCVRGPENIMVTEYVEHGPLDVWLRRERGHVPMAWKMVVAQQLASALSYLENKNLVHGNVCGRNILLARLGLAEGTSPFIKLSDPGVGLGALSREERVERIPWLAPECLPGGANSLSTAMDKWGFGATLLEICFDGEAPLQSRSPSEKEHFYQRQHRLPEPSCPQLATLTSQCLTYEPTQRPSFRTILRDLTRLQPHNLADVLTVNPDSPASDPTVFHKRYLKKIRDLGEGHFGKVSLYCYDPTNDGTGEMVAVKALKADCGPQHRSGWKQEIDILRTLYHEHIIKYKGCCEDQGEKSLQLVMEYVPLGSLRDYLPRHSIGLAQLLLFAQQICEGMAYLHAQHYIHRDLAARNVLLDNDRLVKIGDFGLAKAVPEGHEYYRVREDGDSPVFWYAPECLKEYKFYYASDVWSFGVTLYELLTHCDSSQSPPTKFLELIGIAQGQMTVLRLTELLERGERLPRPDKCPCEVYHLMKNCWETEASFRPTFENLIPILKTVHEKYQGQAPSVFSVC
Sequence of JAK2 (O60674 whole entry): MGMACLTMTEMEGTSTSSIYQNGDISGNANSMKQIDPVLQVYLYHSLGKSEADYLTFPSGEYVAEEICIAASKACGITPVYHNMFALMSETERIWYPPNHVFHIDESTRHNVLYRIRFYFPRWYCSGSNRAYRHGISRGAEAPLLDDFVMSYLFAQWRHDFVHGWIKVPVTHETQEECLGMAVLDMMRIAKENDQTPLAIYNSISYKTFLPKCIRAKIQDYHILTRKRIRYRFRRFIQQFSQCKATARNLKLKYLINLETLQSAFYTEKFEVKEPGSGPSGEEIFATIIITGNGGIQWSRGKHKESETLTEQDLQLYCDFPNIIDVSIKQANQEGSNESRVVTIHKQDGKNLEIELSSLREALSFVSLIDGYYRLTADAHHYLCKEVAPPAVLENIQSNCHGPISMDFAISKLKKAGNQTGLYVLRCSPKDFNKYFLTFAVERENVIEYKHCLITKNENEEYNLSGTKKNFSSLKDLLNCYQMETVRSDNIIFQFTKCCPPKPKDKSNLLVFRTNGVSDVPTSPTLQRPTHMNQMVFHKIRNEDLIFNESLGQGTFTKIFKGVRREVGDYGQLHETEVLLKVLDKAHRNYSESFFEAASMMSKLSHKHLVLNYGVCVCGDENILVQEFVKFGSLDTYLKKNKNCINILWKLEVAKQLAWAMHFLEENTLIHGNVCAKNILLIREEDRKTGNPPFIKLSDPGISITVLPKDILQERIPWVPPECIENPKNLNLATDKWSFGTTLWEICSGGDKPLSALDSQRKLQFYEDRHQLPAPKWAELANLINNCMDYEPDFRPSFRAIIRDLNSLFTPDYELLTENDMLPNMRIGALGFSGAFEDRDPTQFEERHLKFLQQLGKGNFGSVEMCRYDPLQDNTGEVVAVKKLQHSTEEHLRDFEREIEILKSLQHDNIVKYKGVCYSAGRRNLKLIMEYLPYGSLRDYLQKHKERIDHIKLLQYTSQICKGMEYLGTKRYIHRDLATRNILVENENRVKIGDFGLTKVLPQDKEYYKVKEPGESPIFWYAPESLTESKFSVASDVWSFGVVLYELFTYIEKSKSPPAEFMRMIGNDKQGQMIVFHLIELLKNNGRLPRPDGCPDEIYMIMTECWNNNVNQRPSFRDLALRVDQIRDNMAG
Sequence of JAK1 (P23458 whole entry): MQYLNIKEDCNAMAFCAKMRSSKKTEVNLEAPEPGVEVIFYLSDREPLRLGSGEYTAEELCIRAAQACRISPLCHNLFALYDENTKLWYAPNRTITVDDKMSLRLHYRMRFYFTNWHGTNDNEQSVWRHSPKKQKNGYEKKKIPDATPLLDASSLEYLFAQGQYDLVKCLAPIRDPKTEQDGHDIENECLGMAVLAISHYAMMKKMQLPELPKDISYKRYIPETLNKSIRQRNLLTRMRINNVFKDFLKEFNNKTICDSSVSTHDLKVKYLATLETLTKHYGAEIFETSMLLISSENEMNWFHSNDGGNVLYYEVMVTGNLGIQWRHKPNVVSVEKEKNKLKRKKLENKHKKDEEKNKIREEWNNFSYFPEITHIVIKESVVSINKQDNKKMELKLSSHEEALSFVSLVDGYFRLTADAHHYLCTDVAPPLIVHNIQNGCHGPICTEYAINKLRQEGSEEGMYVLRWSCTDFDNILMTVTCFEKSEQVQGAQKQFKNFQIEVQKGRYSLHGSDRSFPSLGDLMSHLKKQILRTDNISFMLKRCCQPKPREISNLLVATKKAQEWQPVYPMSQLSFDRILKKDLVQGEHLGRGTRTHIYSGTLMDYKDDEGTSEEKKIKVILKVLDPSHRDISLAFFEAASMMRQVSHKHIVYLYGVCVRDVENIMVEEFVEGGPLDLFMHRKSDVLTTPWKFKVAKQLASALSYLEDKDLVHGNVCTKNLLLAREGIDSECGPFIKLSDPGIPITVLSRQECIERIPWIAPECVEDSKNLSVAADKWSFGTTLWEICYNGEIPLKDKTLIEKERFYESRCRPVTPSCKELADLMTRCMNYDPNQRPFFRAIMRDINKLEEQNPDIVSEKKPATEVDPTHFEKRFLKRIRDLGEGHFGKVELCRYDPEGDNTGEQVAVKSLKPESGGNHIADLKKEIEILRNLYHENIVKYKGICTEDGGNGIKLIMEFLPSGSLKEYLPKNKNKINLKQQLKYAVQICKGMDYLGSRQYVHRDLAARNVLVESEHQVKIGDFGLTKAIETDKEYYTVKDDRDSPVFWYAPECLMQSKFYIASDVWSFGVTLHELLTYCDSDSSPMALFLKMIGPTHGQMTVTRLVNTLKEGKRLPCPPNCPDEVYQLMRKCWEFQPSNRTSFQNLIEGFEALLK
Sequence of JAK3 (P52333 whole entry): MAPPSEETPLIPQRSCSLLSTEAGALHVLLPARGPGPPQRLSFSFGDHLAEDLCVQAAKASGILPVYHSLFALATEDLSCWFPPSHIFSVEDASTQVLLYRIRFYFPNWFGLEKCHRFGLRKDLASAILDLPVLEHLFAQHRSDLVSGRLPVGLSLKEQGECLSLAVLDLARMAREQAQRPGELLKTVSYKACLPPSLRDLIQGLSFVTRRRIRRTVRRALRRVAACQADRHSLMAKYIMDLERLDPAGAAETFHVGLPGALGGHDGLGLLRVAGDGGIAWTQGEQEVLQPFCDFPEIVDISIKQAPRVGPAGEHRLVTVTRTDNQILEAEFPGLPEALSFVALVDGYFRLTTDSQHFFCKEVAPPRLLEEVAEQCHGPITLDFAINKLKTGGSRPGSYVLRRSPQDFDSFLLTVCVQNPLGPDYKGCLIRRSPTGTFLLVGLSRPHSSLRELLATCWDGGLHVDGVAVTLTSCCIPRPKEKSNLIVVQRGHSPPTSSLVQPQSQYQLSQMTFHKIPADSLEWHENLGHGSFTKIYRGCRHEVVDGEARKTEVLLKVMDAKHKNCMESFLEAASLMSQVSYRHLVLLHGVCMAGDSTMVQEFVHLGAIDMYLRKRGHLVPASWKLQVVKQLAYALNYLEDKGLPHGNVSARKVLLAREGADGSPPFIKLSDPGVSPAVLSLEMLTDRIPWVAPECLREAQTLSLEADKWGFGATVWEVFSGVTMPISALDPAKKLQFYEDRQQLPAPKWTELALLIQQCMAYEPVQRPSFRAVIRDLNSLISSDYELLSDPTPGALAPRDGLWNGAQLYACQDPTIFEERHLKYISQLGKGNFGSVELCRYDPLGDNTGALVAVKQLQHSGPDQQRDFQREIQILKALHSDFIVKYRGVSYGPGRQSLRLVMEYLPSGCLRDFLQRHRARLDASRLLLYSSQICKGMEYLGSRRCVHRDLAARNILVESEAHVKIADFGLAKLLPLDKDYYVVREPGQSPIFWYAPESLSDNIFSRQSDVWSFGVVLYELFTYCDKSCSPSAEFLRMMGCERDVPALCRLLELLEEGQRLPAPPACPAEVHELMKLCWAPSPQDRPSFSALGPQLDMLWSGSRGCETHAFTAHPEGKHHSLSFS

COc1cc(Nc2cc(CO)[nH]n2)nc(N(C)[C@@H]2C[C@H]3CCC[C@@H](C2)N3S(=O)(=O)C2CC2)n1 [Example 1-14, (3-((2-(((1R,3s,5S)-9-(cyclopropylsulfonyl)-9-azabicyclo[3.3.1]nonan-3-yl)(methyl)amino)-6-methoxypyrimidin-4-yl)amino)-1H-pyrazol-5-yl)methanol]
JAK 3 (pKi) (JAK3): C (C represents a pKi value between 8 and 9 (Ki between 10 nM and 1 nM)) | JAK 1 (pKi) (JAK1): B (B represents a pKi value between 9 and 10 (Ki between 1 nM and 0.1 nM)) | HT-29 (pIC50) [1]: A (A represents a pIC50 value≥7.5 (IC50≤32 nM)) | JAK 2 (pKi) (JAK2): A (A represents a pKi value≥10 (Ki≤0.1 nM)) | Tyk 2 (pKi) (Tyk2): B (B represents a pKi value between 9 and 10 (Ki between 1 nM and 0.1 nM))

COc1cc(Nc2cc(CO)[nH]n2)nc(N(C)[C@@H]2C[C@H]3CCC[C@@H](C2)N3S(=O)(=O)c2cccnc2)n1 [Example 1-15, (3-((6-methoxy-2-(methyl((1R,3s,5S)-9-(pyridin-3-ylsulfonyl)-9-azabicyclo[3.3.1]nonan-3-yl)amino)pyrimidin-4-yl)amino)-1H-pyrazol-5-yl)methanol]
JAK 3 (pKi) (JAK3): C (C represents a pKi value between 8 and 9 (Ki between 10 nM and 1 nM)) | JAK 1 (pKi) (JAK1): B (B represents a pKi value between 9 and 10 (Ki between 1 nM and 0.1 nM)) | HT-29 (pIC50) [1]: B (B represents a pIC50 value between 6.7 and 7.5 (IC50 between 200 nM and 32 nM)) | JAK 2 (pKi) (JAK2): A (A represents a pKi value≥10 (Ki≤0.1 nM)) | Tyk 2 (pKi) (Tyk2): B (B represents a pKi value between 9 and 10 (Ki between 1 nM and 0.1 nM))

COc1cc(Nc2cc(CO)[nH]n2)nc(N(C)[C@@H]2C[C@H]3CCC[C@@H](C2)N3S(=O)(=O)c2ccccc2)n1 [Example 1-16, (3-((6-methoxy-2-(methyl((1R,3s,5S)-9-(phenylsulfonyl)-9-azabicyclo[3.3.1]nonan-3-yl)amino)pyrimidin-4-yl)amino)-1H-pyrazol-5-yl)methanol]
JAK 3 (pKi) (JAK3): C (C represents a pKi value between 8 and 9 (Ki between 10 nM and 1 nM)) | JAK 1 (pKi) (JAK1): B (B represents a pKi value between 9 and 10 (Ki between 1 nM and 0.1 nM)) | HT-29 (pIC50) [1]: B (B represents a pIC50 value between 6.7 and 7.5 (IC50 between 200 nM and 32 nM)) | JAK 2 (pKi) (JAK2): B (B represents a pKi value between 9 and 10 (Ki between 1 nM and 0.1 nM)) | Tyk 2 (pKi) (Tyk2): B (B represents a pKi value between 9 and 10 (Ki between 1 nM and 0.1 nM))

COc1cc(Nc2cc(CO)[nH]n2)nc(N(C)[C@@H]2C[C@H]3CC[C@@H](C2)N3CCC#N)n1 [Example 5, 3-((1R,3s,5S)-3-((4-((5-(hydroxymethyl)-1H-pyrazol-3-yl)amino)-6-methoxypyrimidin-2-yl)(methyl)amino)-8-azabicyclo[3.2.1]octan-8-yl)-propanenitrile]
Ki (JAK3): 10 to 31.6 nM | Ki (JAK1): 0.1 to 1 nM | IC50 [1]: 200 to 1000 nM | Ki (JAK2): 0.1 to 1 nM | Ki (Tyk2): 1 to 10 nM

COc1cc(Nc2cc(CO)[nH]n2)nc(N(C)[C@@H]2C[C@H]3CCC[C@@H](C2)N3Cc2cncc(C#N)c2)n1 [Example 7, 5-(((1R,3s,5S)-3-((4-((5-(hydroxymethyl)-1H-pyrazol-3-yl)amino)-6-methoxypyrimidin-2-yl)(methyl)amino)-9-azabicyclo[3.3.1]nonan-9-yl)methyl)nicotinonitrile]
Ki (JAK3): 0.1 to 1 nM | JAK 1 (pKi) (JAK1): A (A represents a pKi value≥10 (Ki≤0.1 nM)) | IC50 [1]: 31.6 to 200 nM | JAK 2 (pKi) (JAK2): A (A represents a pKi value≥10 (Ki≤0.1 nM)) | Ki (Tyk2): 0.1 to 1 nM

COc1cc(Nc2cc(CO)[nH]n2)nc(N(C)[C@@H]2C[C@H]3CCC[C@@H](C2)N3S(=O)(=O)CCC#N)n1 [Example 1-12, 3-(((1R,3s,5S)-3-((4-((5-(hydroxymethyl)-1H-pyrazol-3-yl)amino)-6-methoxypyrimidin-2-yl)(methyl)amino)-9-azabicyclo[3.3.1]nonan-9-yl)-sulfonyl)propanenitrile]
JAK 3 (pKi) (JAK3): C (C represents a pKi value between 8 and 9 (Ki between 10 nM and 1 nM)) | JAK 1 (pKi) (JAK1): B (B represents a pKi value between 9 and 10 (Ki between 1 nM and 0.1 nM)) | JAK 2 (pKi) (JAK2): B (B represents a pKi value between 9 and 10 (Ki between 1 nM and 0.1 nM)) | Tyk 2 (pKi) (Tyk2): B (B represents a pKi value between 9 and 10 (Ki between 1 nM and 0.1 nM))

COc1cc(Nc2cc(CO)[nH]n2)nc(N(C)[C@@H]2C[C@H]3CCC[C@@H](C2)N3S(=O)(=O)N2CCCC2)n1 [Example 1-13, (3-((6-methoxy-2-(methyl((1R,3s,5S)-9-(pyrrolidin-1-ylsulfonyl)-9-azabicyclo[3.3.1]nonan-3-yl)amino)pyrimidin-4-yl)amino)-1H-pyrazol-5-yl)methanol]
JAK 3 (pKi) (JAK3): B (B represents a pKi value between 9 and 10 (Ki between 1 nM and 0.1 nM)) | JAK 1 (pKi) (JAK1): A (A represents a pKi value≥10 (Ki≤0.1 nM)) | HT-29 (pIC50) [1]: A (A represents a pIC50 value≥7.5 (IC50≤32 nM)) | JAK 2 (pKi) (JAK2): A (A represents a pKi value≥10 (Ki≤0.1 nM)) | Tyk 2 (pKi) (Tyk2): B (B represents a pKi value between 9 and 10 (Ki between 1 nM and 0.1 nM))

COc1cc(Nc2cc(CO)[nH]n2)nc(N(C)[C@@H]2C[C@H]3CCC[C@@H](C2)N3S(=O)(=O)N2CCC2)n1 [Example 1-17, (3-((2-(((1R,3s,5S)-9-(azetidin-1-ylsulfonyl)-9-azabicyclo[3.3.1]nonan-3-yl)(methyl)amino)-6-methoxypyrimidin-4-yl)amino)-1H-pyrazol-5-yl)methanol]
JAK 3 (pKi) (JAK3): C (C represents a pKi value between 8 and 9 (Ki between 10 nM and 1 nM)) | JAK 1 (pKi) (JAK1): B (B represents a pKi value between 9 and 10 (Ki between 1 nM and 0.1 nM)) | HT-29 (pIC50) [1]: A (A represents a pIC50 value≥7.5 (IC50≤32 nM)) | JAK 2 (pKi) (JAK2): A (A represents a pKi value≥10 (Ki≤0.1 nM)) | Tyk 2 (pKi) (Tyk2): B (B represents a pKi value between 9 and 10 (Ki between 1 nM and 0.1 nM))

COc1cc(Nc2cc(CO)[nH]n2)nc(N(C)[C@@H]2C[C@H]3CCC[C@@H](C2)N3C(=O)C(F)F)n1 [Example 9, 2,2-difluoro-1-((1R,3s,5S)-3-((4-((5-(hydroxymethyl)-1H-pyrazol-3-yl)amino)-6-methoxypyrimidin-2-yl)(methyl)amino)-9-azabicyclo[3.3.1]nonan-9-yl)ethan-1-one]
Ki (JAK3): 10 to 31.6 nM | Ki (JAK1; read-out: JAK 1 (pKi) (converted)): 0.1 to 1 nM | Ki (JAK2): 0.1 to 1 nM | Ki (Tyk2): 0.1 to 1 nM

COc1cc(Nc2cc(CO)[nH]n2)nc(N(C)[C@@H]2C[C@H]3CCC[C@@H](C2)N3CCC#N)n1 [Example 2-5, 3-((1R,3s,5S)-3-((4-((5-(hydroxymethyl)-1H-pyrazol-3-yl)amino)-6-methoxypyrimidin-2-yl)(methyl)amino)-9-azabicyclo[3.3.1]nonan-9-yl)propanenitrile]
JAK 3 (pKi) (JAK3): D (D represents a pKi value between 7.5 and 8 (Ki between 31.6 nM and 10 nM)) | JAK 1 (pKi) (JAK1): B (B represents a pKi value between 9 and 10 (Ki between 1 nM and 0.1 nM)) | JAK 2 (pKi) (JAK2): B (B represents a pKi value between 9 and 10 (Ki between 1 nM and 0.1 nM)) | Tyk 2 (pKi) (Tyk2): C (C represents a pKi value between 8 and 9 (Ki between 10 nM and 1 nM))

— patent US10028960B2, “Pyrimidine compounds as JAK kinase inhibitors” (THERAVANCE BIOPHARMA R&D IP, LLC, priority 2016, dated 2018)
